Entries after “also recorded” stand apart in the source; their conditions may differ.
Legend:
BALB/c mice = assay: ELISA for anti-peptide antibody response in sera of immunized BALB/c mice; type: in vivo; details: high molecular weight (multimer) forms
[1] = test system: native HIV envelope protein gp160; details: disulfide (di-Cys) polymeric form
Source text: FIG. 6 contains two panels of graphs that illustrate B6C3 F1 mouse PLN cell proliferation by ^3H-TdR incorporation as described before using varying concentrations of peptide multimer and gp120 as antigens. […] PPD and unrelated peptide were used as controls. A further discussion relating to FIGS. 6-8 is found hereinafter.
The cells were harvested onto filter strips and ^3H-TdR incorporation was monitored.
T cell proliferation measured by ^3H-TdR incorporation, was also similarly assayed as a function of the T cell antigen concentration, using various amounts of native gp120 or gp160 as one control, and PPD as another control. PLN from B6C3 F1 mice were used in these studies.

Row | Sequence | anti-peptide antibody response (in words) (BALB/c mice) | T cell response directed against the corresponding peptide and native HIV envelope protein gp160 [1]
1 | FLGFLGAAGSTMGAASLTLTVQANQ [Peptide 63] | very low to negligible amounts of anti-peptide antibodies; also recorded: do not stimulate anti-peptide antibody production | strong T cell response
2 | GTGPCTNVSTVQC [Peptide 116, gp160 CR-2, residues 240-252] | very low to negligible amounts of anti-peptide antibodies | –
3 | LWDQSLKPCVKLT [Peptide 111, gp160 CR-1, residues 118-131] | very low to negligible amounts of anti-peptide antibodies | –
4 | SVITQACSKVSFE [Peptide 113] | very low to negligible amounts of anti-peptide antibodies; also recorded: do not stimulate anti-peptide antibody production | strong T cell response
5 | VYYGVPVWKEA [Peptide 104] | very low to negligible amounts of anti-peptide antibodies; also recorded: do not stimulate anti-peptide antibody production | strong T cell response
6 | YLRDQQLLGIWGC [Peptide 61] | very low to negligible amounts of anti-peptide antibodies; also recorded: do not stimulate anti-peptide antibody production | strong T cell response

Source: patent US20020151678A1, “Prophylaxis and therapy of acquired immunodeficiency syndrome” (Board of Regents, The University of Texas System., priority 1987, published 2002)
